Key:
Hep3B cell = assay: EPO Elisa Assay in Hep3B cells; assay type: cell-based; conditions: Homo sapiens, 24 h at 37° C.
PHD2 = PHD2 (Homo sapiens (Human), UniProt Q9GZT9); assay: PHD2 Enzymatic Assay (AlphaScreen); assay type: biochemical; conditions: 30 min preincubation at RT
PHD2, sequence (Q9GZT9 whole entry): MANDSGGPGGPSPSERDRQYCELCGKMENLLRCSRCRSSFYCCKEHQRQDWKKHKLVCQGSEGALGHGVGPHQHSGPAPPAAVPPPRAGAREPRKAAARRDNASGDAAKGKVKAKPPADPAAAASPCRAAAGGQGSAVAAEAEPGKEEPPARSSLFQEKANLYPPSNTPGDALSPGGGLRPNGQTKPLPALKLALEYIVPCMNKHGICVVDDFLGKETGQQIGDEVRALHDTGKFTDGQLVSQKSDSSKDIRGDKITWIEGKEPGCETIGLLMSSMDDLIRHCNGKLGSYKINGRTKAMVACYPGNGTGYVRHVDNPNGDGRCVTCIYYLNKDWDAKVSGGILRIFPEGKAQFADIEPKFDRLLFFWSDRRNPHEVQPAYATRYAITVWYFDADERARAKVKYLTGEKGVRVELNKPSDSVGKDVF

| EC50 (Hep3B cell) [nM] | IC50 (PHD2) [nM] | SMILES |
| --- | --- | --- |
| 10000 to 100000 | < 5 | CC(C)(C)OC(=O)N1C[C@@H]2C[C@H]1CN2c1ccc2c(O)c(C(=O)NCc3ccc(C#N)nc3)ncc2n1 [compound 116] |
| 2500 to 5000 |  | N#Cc1ccc(CNC(=O)c2ncc3nc(N4CC5CC4CO5)ccc3c2O)cn1 (centres unmarked) [compound 30] |
| < 2500 | < 5 | CC(C)(C)OC(=O)N1CC2(C1)CN(c1ccc3c(O)c(C(=O)NCc4ccc(C#N)nc4)ncc3n1)C2 [compound 91] |
| 10000 to 100000 | < 5 | CN1C[C@@H]2C[C@H]1CN2c1ccc2c(O)c(C(=O)NCc3ccc(C#N)cc3Cl)ncc2n1 [compound 58] |
| 2500 to 5000 | < 5 | N#Cc1ccc(CNC(=O)c2ncc3nc(N4C[C@@H]5C[C@H]4CO5)ccc3c2O)cn1 [compound 44] |

Further lines, the compound ahead of its results:

| SMILES | EC50 (Hep3B cell) [nM] | IC50 (PHD2) [nM] |
| --- | --- | --- |
| CC(C)(C)OC(=O)N1CCOC2(C1)CN(c1ccc3c(O)c(C(=O)NCc4ccc(C#N)nc4)ncc3n1)C2 [compound 118] | 2500 to 5000 | < 5 |
| N#Cc1ccc(CNC(=O)c2ncc3nc(N4C[C@@H]5C[C@H]4CN5C4CC4)ccc3c2O)c(Cl)c1 [compound 68] | < 2500 | 5 to 20 |
| N#Cc1ccc(CNC(=O)c2ncc3nc(N4C[C@H]5C[C@@H]4CO5)ccc3c2O)cn1 [compound 43] | 2500 to 5000 | < 5 |
| N#Cc1ccc(CNC(=O)c2ncc3nc(N4CCC5(COC5)C4)ccc3c2O)c(Cl)c1 [compound 8] | 2500 to 5000 | 5 to 20 |
| N#Cc1ccc(CNC(=O)c2ncc3nc(N4C[C@H]5C[C@@H]4CN5C4CC4)ccc3c2O)c(Cl)c1 [compound 69] | 2500 to 5000 | 5 to 20 |
| N#Cc1ccc(CNC(=O)c2ncc3nc(N4CCC5(COC5)C4)ccc3c2O)cn1 [compound 25] | < 2500 | < 5 |
| CC(C)(C)OC(=O)N[C@@H]1CN(c2ccc3c(O)c(C(=O)NCc4ccc(C#N)nc4)ncc3n2)CC12CC2 [compound 145] | 10000 to 100000 | < 5 |
| CN1CCC2(CCN(c3ccc4c(O)c(C(=O)NCc5ccc(C#N)nc5)ncc4n3)CC2)C1=O [compound 67] | 5000 to 7500 | < 5 |
| N#Cc1ccc(CNC(=O)c2ncc3nc(N4C[C@@H]5C[C@H]4CN5C4CC4)ccc3c2O)cn1 [compound 80] | < 2500 | < 5 |
| CC(C)(C)OC(=O)N1C[C@@H]2CN(c3ccc4c(O)c(C(=O)NCc5ccc(C#N)nc5)ncc4n3)C[C@@H]2C1 [compound 117] | 2500 to 5000 | < 5 |

Source: patent US11780854B2, “Prolyl hydroxylase domain-containing protein (PHD) inhibitors and uses thereof” (Insilico Medicine IP Limited, priority 2021, dated 2023)
